Columns and labels:
MAPK1(ERK2) enzyme = molecular target: T1, MAPK1(ERK2) enzyme (Homo sapiens, UniProt P28482); assay: Z-Lyte Kinase Assay of ERK2; format: biochemical; conditions: read-out: Example 18 IC50
T1 construct: purchased Invitrogen PV3313
How it was run: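 FRET-based Z-LYTE assay using ERK2 kinase with Ser/Thr3 peptide; compound tested at 0.00046–1 μM final in 2% DMSO. Kinase reaction ran 1 h at 25-30° C, followed by 1 h development. The coumarin/fluorescein emission ratio (445/520 nm) gave % phosphorylation, and IC50 was fitted from inhibition relative to uninhibited control.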

[1] = tested on: p-RSK (Thr359) in colo205 cells; assay: p-RSK (Thr359) Acumen Assay in Colo205; format: cell-based; conditions: Homo sapiens, COLO 205, 1 hour compound incubation, read-out: Example 19 IC50
How it was run: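 Colo205 cells (4000/well, seeded overnight in 10% FBS) were exposed 1 hour at 37° C to compound added from a 3–0.001 μM dilution series in 5% DMSO. Cells were then fixed, permeabilised and immunostained for p-RSK Thr359, with PI counterstain. Acumen cytometry gave the percentage of positive cells, normalised to untreated wells and 3 uM GDC0994 wells, for the IC50 fit.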

T1 sequence (P28482 whole entry): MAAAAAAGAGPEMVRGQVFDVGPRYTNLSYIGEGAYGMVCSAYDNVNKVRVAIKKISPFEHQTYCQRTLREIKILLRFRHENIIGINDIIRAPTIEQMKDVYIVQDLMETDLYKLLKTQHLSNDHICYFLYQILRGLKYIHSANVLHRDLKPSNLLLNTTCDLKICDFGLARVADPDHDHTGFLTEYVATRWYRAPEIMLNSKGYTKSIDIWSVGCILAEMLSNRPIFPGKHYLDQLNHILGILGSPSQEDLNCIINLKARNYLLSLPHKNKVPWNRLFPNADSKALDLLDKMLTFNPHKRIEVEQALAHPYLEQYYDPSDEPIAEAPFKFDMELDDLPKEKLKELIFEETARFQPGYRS

SMILES	IC50 (MAPK1(ERK2) enzyme) [nM]	IC50 [1] [nM]
Cn1nccc1Nc1nccc(-c2cc3n(c2)C[C@H](C(F)(F)F)n2c-3nnc2C(F)(F)c2ccccc2F)n1 [Compound 273]	5 to 10	> 100
Cc1cnc(Nc2ccnn2C)nc1-c1cc2n(c1)CCCn1c(Cc3ccccc3F)nnc1-2 [Compound 6]	5 to 10	≤ 100
C[C@H]1Cn2cc(-c3ccnc(Nc4ccnn4C)n3)cc2-c2nnc(C(F)(F)c3ccccc3F)n21 [Compound 71]	≤ 5	≤ 100
Cn1nccc1Nc1cc(-c2cc3n(c2)CC2(CCC2)n2c(CCC(F)(F)F)nnc2-3)c(Cl)cn1 [Compound 253]	≤ 5	≤ 100
Cn1nccc1Nc1cc(-c2cc3n(c2)C[C@H](F)Cn2c-3nnc2C(F)(F)C(F)(F)F)c(Cl)cn1 [Compound 115]	5 to 10	> 100
Cc1cnc(Nc2ccnn2C)nc1-c1cc2n(c1)C[C@H](CF)n1c-2nnc1C(F)(F)c1ccccc1F [Compound 131]	≤ 5	≤ 100
Cn1nccc1Nc1cc(-c2cc3n(c2)C[C@H](CF)n2c-3nnc2C(F)(F)c2ccnn2C)c(Cl)cn1 [Compound 154]	≤ 5	≤ 100
C[C@@H](c1ccccc1)c1nnc2n1CCCn1cc(-c3cc(Nc4ccnn4C)ncc3Cl)cc1-2 [Compound 15]	5 to 10	≤ 100
Cn1nccc1Nc1cc(-c2cc3n(c2)C[C@@H](F)Cn2c-3nnc2C2(C(F)(F)F)CCC2)c(Cl)cn1 [Compound 122]	≤ 5	≤ 100
COC[C@H]1Cn2cc(-c3cc(Nc4ccnn4C)ncc3C)cc2-c2nnc(C(F)(F)c3ccccc3F)n21 [Compound 303]	5 to 10	> 100
Cn1nccc1Nc1nccc(-c2cc3n(c2)CCCn2c(COc4ccccc4F)nnc2-3)n1 [Compound 37]	≤ 5	≤ 100
Cn1nccc1Nc1cc(-c2cc3n(c2)C[C@H](CF)n2c-3nnc2C(F)(F)c2ncco2)c(Cl)cn1 [Compound 110]	≤ 5	> 100
CC[C@H]1Cn2cc(-c3nc(Nc4ccnn4C)ncc3C)cc2-c2nnc(C(F)(F)c3ccccc3F)n21 [Compound 265]	> 10	> 100
Cn1nccc1Nc1cc(-c2cc3n(c2)C[C@H](CF)n2c-3nnc2C(F)(F)c2ccccn2)c(Cl)cn1 [Compound 141]	≤ 5	≤ 100
Cc1cnc(Nc2ccnn2C)cc1-c1cc2n(c1)C[C@H](CF)n1c-2nnc1C(F)(F)c1ncccc1F [Compound 133]	≤ 5	≤ 100
Cn1nccc1Nc1cc(-c2cc3n(c2)CC(F)(F)Cn2c(Cn4ccc(F)c4C#N)nnc2-3)c(Cl)cn1 [Compound 218]	5 to 10	≤ 100
Cn1nccc1Nc1nccc(-c2cn3c(c2F)-c2nnc(C4(C(F)(F)F)CCC4)n2CCC3)n1 [Compound 243]	≤ 5	> 100
Cc1cnc(Nc2ccnn2C)cc1-c1cc2n(c1)CC(F)(F)Cn1c-2nnc1C1(C(F)(F)F)CCC1 [Compound 117]	≤ 5	≤ 100
Cn1nccc1Nc1cc(-c2cc3n(c2)CCCn2c(Cn4cc(Cl)cn4)nnc2-3)c(Cl)cn1 [Compound 73]	≤ 5	> 100
C[C@H]1Cn2cc(-c3ccnc(Nc4ccnn4C(F)F)n3)nc2-c2nnc(C(F)(F)c3ccccc3Cl)n21 [Compound 227]	≤ 5	≤ 100
COC[C@H]1Cn2cc(-c3cc(Nc4ccnn4C)ncc3C)cc2-c2nnc(C(F)(F)c3ccccc3Cl)n21 [Compound 201]	> 10	≤ 100
Cc1cnc(Nc2ccnn2C)cc1-c1cc2n(c1)C[C@H](CF)n1c-2nnc1C(F)(F)n1ccccc1=O [Compound 124]	≤ 5	≤ 100
Cn1nccc1Nc1nccc(-c2cc3n(c2)CCCn2c(COc4ccccc4)nnc2-3)n1 [Compound 36, N-(1-methyl-1H-pyrazol-5-yl)-4-(3-(phenoxymethyl)-6,7-dihydro-5H-pyrrolo[1,2-a][1,2,4]triazolo[3,4-c][1,4]diazepin-10-yl)pyrimidin-2-amine]	≤ 5	> 100
Cn1nccc1Nc1ncc(F)c(-c2cc3n(c2)CCCn2c-3nnc2C2(C(F)(F)F)CCC2)n1 [Compound 285]	≤ 5	> 100
Cn1nccc1Nc1nccc(-c2cc3n(c2)CCCn2c(CSc4ccccc4F)nnc2-3)n1 [Compound 19]	≤ 5	≤ 100
Cn1nccc1Nc1cc(-c2cc3n(c2)C[C@H](CF)n2c-3nnc2C(F)(F)n2cc(Cl)cn2)c(Cl)cn1 [Compound 200]	5 to 10	≤ 100
Cn1nccc1Nc1cc(-c2cc3n(c2)CCn2c(Cc4ccccc4F)nnc2-3)c(Cl)cn1 [Compound 9]	≤ 5	≤ 100
Cc1cnc(Nc2ccnn2C)cc1-c1cc2n(c1)[C@H]1CC[C@H](C1)n1c-2nnc1C(F)(F)C(F)F [Compound 67]	≤ 5	≤ 100

Next, values leading:

IC50 (MAPK1(ERK2) enzyme) [nM]	IC50 [1] [nM]	SMILES
≤ 5	≤ 100	Cn1nccc1Nc1nccc(-c2cn3c(c2Cl)-c2nnc(Cc4ccccc4F)n2CCC3)n1 [Compound 245]
5 to 10	≤ 100	C[C@H]1Cn2cc(-c3ccnc(Nc4ccnn4C)c3)cc2-c2nnc(C(F)(F)c3ccccc3Cl)n21 [Compound 91]
≤ 5	≤ 100	Cc1cnc(Nc2ccnn2C)nc1-c1cc2n(c1)CCCn1c-2nnc1C1(C(F)(F)F)CCC1 [Compound 12]
5 to 10	≤ 100	C[C@H]1Cn2cc(-c3cc(Nc4ccnn4C)ncc3Cl)cc2-c2nnc(C(F)(F)c3ccccc3F)n21 [Compound 135]
5 to 10	≤ 100	Cc1cnc(Nc2ccnn2CCO)nc1-c1cc2n(c1)C[C@H](C)n1c-2nnc1C(F)(F)c1ccccc1F [Compound 293]
5 to 10	≤ 100	Cn1nccc1Nc1cc(-c2cc3n(c2)CCCn2c-3nnc2C2(C(F)(F)F)CCCC2)c(Cl)cn1 [Compound 31]
5 to 10	≤ 100	Cn1nccc1Nc1cc(-c2cc3n(c2)CCCn2c-3nnc2C2(C(F)(F)F)CCC2)c(C(F)(F)F)cn1 [Compound 271]
5 to 10	≤ 100	Cn1nccc1Nc1cc(-c2cc3n(c2)CCn2c(COc4ccccc4F)nnc2-3)c(Cl)cn1 [Compound 23]
≤ 5	≤ 100	Cc1cnc(Nc2ccnn2C)nc1-c1cc2n(c1)[C@@H](C)Cn1c-2nnc1C1(C(F)(F)F)CCC1 [Compound 47]
≤ 5	> 100	Cn1nccc1Nc1nccc(-c2cc3c4nnc(Nc5ccccc5F)n4ccn3c2)n1 [Compound 41, N-(2-fluorophenyl)-9-(2-((1-methyl-1H-pyrazol-5-yl)amino)pyrimidin-4-yl)pyrrolo[1,2-a][1,2,4]triazolo[3,4-c]pyrazin-3-amine]
5 to 10	> 100	Cn1nccc1Nc1cc(-c2cc3n(c2)CC2(CCC2)Cn2c-3nnc2C(F)(F)C(F)F)c(Cl)cn1 [Compound 119]
5 to 10	> 100	Cn1nccc1Nc1cc(-c2cc3n(c2)CC(F)(F)Cn2c(Cn4ncc5ccccc54)nnc2-3)c(Cl)cn1 [Compound 199]
> 10	≤ 100	Cc1ncccc1C(F)(F)c1nnc2n1[C@@H](CF)Cn1cc(-c3cc(Nc4ccnn4C)ncc3Cl)cc1-2 [Compound 177]
≤ 5	≤ 100	Cn1nccc1Nc1cc(-c2cc3n(c2)CC2(CC2)Cn2c-3nnc2C2(C(F)(F)F)CCC2)c(Cl)cn1 [Compound 268]
5 to 10	≤ 100	Cn1nccc1Nc1cc(-c2cc3n(c2)CCCn2c(COc4ccccc4F)nnc2-3)c(F)cn1 [Compound 244]
≤ 5	≤ 100	Cn1nccc1Nc1nccc(-c2cc3c4nnc(COc5ccccc5Cl)n4ccn3c2)n1 [Compound 40]
5 to 10	≤ 100	Cc1cnc(Nc2nncs2)nc1-c1cc2n(c1)C[C@H](C)n1c-2nnc1C(F)(F)c1ccccc1F [Compound 287]
≤ 5	≤ 100	Cn1nccc1Nc1cc(-c2cc3n(c2)CC2(COC2)Cn2c-3nnc2C2(C(F)(F)F)CCC2)c(Cl)cn1 [Compound 307]
5 to 10	≤ 100	Cn1nccc1Nc1cc(-c2cc3n(c2)C[C@H](CF)n2c-3nnc2C(F)(F)c2ccon2)c(Cl)cn1 [Compound 112]
5 to 10	≤ 100	Cn1nccc1Nc1cc(-c2cc3n(c2)C[C@H](F)Cn2c-3nnc2C(F)(F)n2cc(F)cn2)c(Cl)cn1 [Compound 162]
≤ 5	≤ 100	Cn1nccc1Nc1cc(-c2cc3n(c2)CCCn2c-3nnc2C2(C(F)F)CCCC2)c(Cl)cn1 [Compound 81]
≤ 5	≤ 100	Cn1nccc1Nc1ncnc(-c2cc3n(c2)C[C@H](CF)n2c-3nnc2C(F)(F)c2ccccc2Cl)n1 [Compound 144]
5 to 10	> 100	Cc1cnc(Nc2c(F)cnn2C)nc1-c1cc2n(c1)C[C@H](C)n1c-2nnc1C(F)(F)c1ccccc1F [Compound 290]
≤ 5	≤ 100	Cc1cnc(Nc2ccnn2C)cc1-c1cc2n(c1)C[C@H](CF)n1c-2nnc1C(F)(F)c1cc(F)ccc1F [Compound 183]
≤ 5	≤ 100	Cc1cnc(Nc2ccnn2C)nc1-c1cc2n(c1)CCCn1c-2nnc1C1(C(F)(F)F)CCCC1 [Compound 28]
5 to 10	> 100	Cc1cnc(Nc2ccnn2C)cc1-c1cc2n(c1)CC1(CC1)Cn1c-2nnc1C(F)(F)C(F)(F)F [Compound 84]
≤ 5	≤ 100	Cn1nccc1Nc1cc(-c2cc3n(c2)CCn2c-3nnc2C(F)(F)C(F)F)c(Cl)cn1 [Compound 58]

— patent US12492210B2, “Tricyclic compounds and their use” (HUTCHISON MEDIPHARMA LIMITED, priority 2019, dated 2025)
